According to US4528290A, “Stimulating dopamine D-1 receptors” (Eli Lilly and Company, priority 1984, dated 1985):
Each block holds one compound with its values, some of them ahead of it.

Tested on: dopamine D-1 receptors (cyclic AMP efflux, striatal tissue)
Assay: tissue or blood
Protocol: A second, particularly sensitive indicator of D-1 agonist activity is the determination of the cyclic AMP efflux in tissue slices using a procedure based on Stoof and Kebabian (loc. cit). In this procedure, striatal tissue is dissected from rat brains and chopped into 0.3 mm.×[…]. fragments. The tissue fragments are suspended in the appropriate buffer system (Earl's balanced salt solution, for example) and the suspension is continuously aerated with 95:5 O2 /CO2 while being maintained at 37° C. Just prior to use, the tissue fragments are transferred to fresh media to which is added bovine serum albumin (2.5 mg./ml.) and 3-isobutyl-1-methylxanthine (1 millimolar) to block degradation of cyclic AMP. The tissue fragments are incubated in buffer without drugs and are then transferred to the same media with added drug. Aliquots of incubation media, with and without drugs, are assayed for cyclic AMP concentration by a specific radioimmunoassay. The effect of the drug or drugs on efflux is expressed as a percentage of the resting efflux. The following medium was employed:
Sulpiride is known to be an antagonist on pituitary D-2 receptors. Addition of sulpiride to a test system, such as that described above, blocks any D-2 effect of a drug in reducing cyclic AMP production.

Compound: Oc1cc2c(cc1O)C(c1ccccc1)CNCC2 (stereo not shown) [SKF38393, 1,2,3,4-tetrahydro-7,8-dihydroxy-1-phenyl-1H-3-benzazepine]
activation at 1 µM (Rattus norvegicus, read-out: increase of cyclic AMP production): 145%

Compound: CCCN1CCC[C@@H]2Cc3[nH]ncc3C[C@H]21 [4aR, 8aR enantiomer, 4aR,8aR-5-n-propyl-4,4a,5,6,7,8,8a,9-octahydro-1H(and 2H)-pyrazolo[4,3-g]-quinoline]
cyclic AMP production increase by SKF38393 after addition of the compound (compound at 0.5×10^-6 M added to SKF38393 10^-6 molar (145% alone)): 42%

effect of sulpiride on the lowering of the SKF38393 cyclic AMP increase by the trans-(-)-enantiomer (sulpiride 10^-6 M): suppressed
Compound: CCN1CCCC1CNC(=O)c1cc(S(N)(=O)=O)ccc1OC (stereo not shown) [sulpiride]
effect of sulpiride on the increase in cyclic AMP efflux caused by A (sulpiride 10^-6 M with A 5 × 10^-7 M): no effect on the increase in cyclic AMP efflux
